The record followed here is US20220192955A1, “AZOXYSTROBIN EFFICACY IN SCALP HEALTH” (The Procter & Gamble Company, priority 2020, published 2022).

For orientation: MIC means the least concentration at which growth counts as inhibited. Lower therefore signals a more susceptible organism.

In the experiment the test system is Malassezia furfur (CBS 7982). Description: In vitro evaluation of antifungal potency (MIC). It is filed as cell-based. The note with it: for MIC value, Malassezia furfur / MIC: M. furfur CBS 7982, mDixon medium, 31° C., approximately 72 hours, absorbance at 600 nm; for MIC: Malassezia furfur, CBS7982. The procedure: Malassezia furfur (CBS 7982) is grown for approximately 24 hours in a 250 ml vent cap polycarbonate Erlenmeyer flask containing approximately 100 ml of mDixon medium and 5 ml of a fully grown M. furfur culture prepared using the same conditions as described. The cells are diluted by mixing 2.5 ml of the 24 hour-old culture per 50 ml of mDixon medium. A Versette robot (ThermoFisher Scientific) is used to transfer 292.5 μl of the dilute cells into each well of a Beckman 267007 polypropylene round bottom deep well plate. All compounds are sourced from Sigma Aldrich (St. Louis, Mo.) and prepared as 10 mg/ml in DMSO. A semipermeable aeraseal membrane is applied to the plate which is then be covered with water-soaked cotton batting. The samples are be shaken at 31° C. on a Heidolph Titramax 100 shaker at 1500 rpm for approximately 72 hours. The plates are shaken at 1250 rpm on an Eppendorf MixMate shaker to disperse the cells before transferring 200 μl to a Corning 3596 polystyrene plate. The samples are shaken again at 950 rpm on a MixMate shaker before the absorbance at 600 nm is read using a Molecular Devices SpectraMax plate reader.

Converted amounts (≈) assume the structure as drawn.

With `CNC(=O)/C(=N/OC)c1ccccc1COc1cc(C)ccc1C` [Dimoxystrobin, dimoxystrobin], the “MIC value, Malassezia furfur” value worked out at 7.81 ppm.

In the case of `CO/N=C(/C1=NOCCO1)c1ccccc1Oc1ncnc(Oc2ccccc2Cl)c1F` [Fluoxastrobin, fluoxastrobin], the MIC stood at 3.91 µg/mL (≈ 8.52 µM).

Turning to `CO/N=C(/C(=O)OC)c1ccccc1COc1ccccc1C` [Kresoxim-methyl, kresoxim methyl], the lowest concentration to inhibit growth (MIC) was 15.6 µg/mL (≈ 49.9 µM).

On to `CNC(=O)/C(=N/OC)c1ccccc1CO/N=C(C)/C(=N/OC)C(/C)=N/OC` [Orysastrobin, orysastrobin], for which the “MIC value, Malassezia furfur” value worked out at 31.25 ppm. The “times less potent than azoxystrobin (MIC)” value (Malassezia furfur MIC ratio) was found to be 64 times.

Consider `COC(=O)N(OC)c1ccccc1COc1ccn(-c2ccc(Cl)cc2)n1` [Pyraclastrobin, pyraclostrobin], for which inhibition of growth (MIC) required 1.95 µg/mL (≈ 5.03 µM).

`CON=C(C(=O)OC)c1ccccc1CON=C(C)c1cccc(C(F)(F)F)c1` [Trifloxystrobin, trifloxystrobin] had an MIC of 15.6 µg/mL (≈ 38.3 µM).

As for zinc pyrithione, the “MIC value, Malassezia furfur” value worked out at 3.13 ppm.
